In PubChem BioAssay (NCI) one finds TGI data, which are given here for 6 compounds.

Some test systems named below: A498 renal; CAKI-1 renal; CCRF-CEM leukemia; COLO 205 colon; DU-145 prostate; HOP-62 NSCLC; HT29 colon; M14 melanoma; NCI-H23 lung; NCI-H460 lung; NCI/ADR-RES ovarian; RXF 393 renal; SF-295 CNS; SR leukemia.
What all share (assay): NCI tumour cell line growth inhibition, 48 h

Each structure is given as a SMILES string.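 Values below derive from 48-hour exposures of cells grown in 96-well plates, with endpoints linearly interpolated between the two concentrations bracketing the appropriate inhibition level. TGI denotes the concentration required for complete inhibition of growth.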

Take `N#CCCN(CCCN(C(=O)Nc1ccc(NC(=O)N(CCCN(CCC#N)C(N)=O)c2ccccc2)cc1)c1ccccc1)C(N)=O`: the TGI with A498 renal, with CAKI-1 renal, with CCRF-CEM leukemia, in the experiment on COLO 205 colon, in the experiment with DU-145 prostate and in the experiment on HOP-62 NSCLC was above 100 µM throughout. For the same compound, the TGI with HT29 colon, in the experiment on M14 melanoma, in the experiment on NCI-H23 lung, in the experiment with NCI-H460 lung, in the experiment with NCI/ADR-RES ovarian and in the experiment on RXF 393 renal was above 100 µM each time. For the same compound, the TGI with SF-295 CNS and in the experiment with SR leukemia was above 100 µM each time.
Regarding `CN(C)c1cccc(/C=C(\C#N)c2ccccc2)c1`, the TGI in the experiment with A498 renal is 35.4 µM; with CAKI-1 renal it was above 100 µM; with CCRF-CEM leukemia it was above 37.3 µM; in the experiment on COLO 205 colon, 5.41 µM; in the experiment on DU-145 prostate, 33.5 µM; in the experiment with HOP-62 NSCLC, 8.65 µM. Further, the TGI with HT29 colon is 2.57 µM; in the experiment with M14 melanoma it was above 47.2 µM; in the experiment on NCI-H23 lung, 45 µM; in the experiment with NCI-H460 lung it was 12.5 µM; with NCI/ADR-RES ovarian, 3.5 µM; in the experiment with RXF 393 renal, 4.51 µM. Further, the figures for the TGI in the experiment with SF-295 CNS and in the experiment on SR leukemia were 15.1 µM and above 8.15 µM, respectively.
In the case of `[O-]/[N+](=N/c1ncc(-c2ccccc2)cn1)c1ncc(-c2ccccc2)cn1`, the TGI with A498 renal, with CAKI-1 renal, in the experiment on CCRF-CEM leukemia, in the experiment with COLO 205 colon, in the experiment with DU-145 prostate and in the experiment on HOP-62 NSCLC was above 100 µM each time. For the same compound, the TGI with HT29 colon, in the experiment with M14 melanoma, with NCI-H23 lung, in the experiment on NCI-H460 lung, with NCI/ADR-RES ovarian and in the experiment on RXF 393 renal was above 100 µM in each case. Further, the TGI with SF-295 CNS and in the experiment on SR leukemia was above 100 µM each time.
For `Cc1ccccc1C1CC(=O)CC(c2ccccc2C)C12C(=O)NC(=S)NC2=O` (centres undefined), the TGI was 72.2 µM in the experiment on A498 renal; above 100 µM in the experiment on CAKI-1 renal; 70.4 µM with CCRF-CEM leukemia; 42.4 µM with COLO 205 colon; above 100 µM with DU-145 prostate; above 100 µM in the experiment with HOP-62 NSCLC. Further, the TGI with HT29 colon was 54.3 µM; with M14 melanoma, 91.8 µM; in the experiment on NCI-H23 lung, above 100 µM; in the experiment on NCI-H460 lung, 41.8 µM; in the experiment on NCI/ADR-RES ovarian it was above 100 µM; in the experiment with RXF 393 renal it was 38.8 µM. Besides, the TGI in the experiment with SF-295 CNS and with SR leukemia was above 100 µM in each case.
Take `CC(C)(C)Cc1cc(O)ccc1O`: the TGI in the experiment on A498 renal was above 100 µM; in the experiment with CAKI-1 renal it was above 100 µM; in the experiment with CCRF-CEM leukemia, 93.9 µM; in the experiment on COLO 205 colon it was above 100 µM; in the experiment with DU-145 prostate, above 100 µM; in the experiment with HOP-62 NSCLC, above 100 µM. The TGI with HT29 colon was above 100 µM; with M14 melanoma, above 100 µM; with NCI-H23 lung it was above 100 µM; with NCI-H460 lung, above 100 µM; in the experiment with NCI/ADR-RES ovarian, 94.5 µM; in the experiment with RXF 393 renal, above 100 µM. Further, the TGI in the experiment on SF-295 CNS and in the experiment on SR leukemia was above 100 µM each time.
For `COc1cc(OC)c2nc(C)c3c(c2c1)OCC3`, the TGI with A498 renal was above 100 µM; in the experiment with CAKI-1 renal, 72 µM; with CCRF-CEM leukemia, above 100 µM; in the experiment with COLO 205 colon, above 100 µM; with DU-145 prostate, above 100 µM; with HOP-62 NSCLC it was above 100 µM. The TGI was above 100 µM in the experiment on HT29 colon; above 100 µM with M14 melanoma; above 100 µM in the experiment on NCI-H23 lung; above 100 µM in the experiment on NCI-H460 lung; above 100 µM in the experiment on NCI/ADR-RES ovarian; 62.6 µM in the experiment with RXF 393 renal. The TGI in the experiment with SF-295 CNS and with SR leukemia was above 100 µM each time.
